Data on 1 compound can be found in paper PMC6269737, “Effect of Honokiol on Cytochrome P450 and UDP-Glucuronosyltransferase Enzyme Activities in Human Liver Microsomes” (Molecules, 2013).

One experiment has as its target T1, CYP2A6 (Homo sapiens, UniProt P11509).
T1 sequence (P11509 1-494): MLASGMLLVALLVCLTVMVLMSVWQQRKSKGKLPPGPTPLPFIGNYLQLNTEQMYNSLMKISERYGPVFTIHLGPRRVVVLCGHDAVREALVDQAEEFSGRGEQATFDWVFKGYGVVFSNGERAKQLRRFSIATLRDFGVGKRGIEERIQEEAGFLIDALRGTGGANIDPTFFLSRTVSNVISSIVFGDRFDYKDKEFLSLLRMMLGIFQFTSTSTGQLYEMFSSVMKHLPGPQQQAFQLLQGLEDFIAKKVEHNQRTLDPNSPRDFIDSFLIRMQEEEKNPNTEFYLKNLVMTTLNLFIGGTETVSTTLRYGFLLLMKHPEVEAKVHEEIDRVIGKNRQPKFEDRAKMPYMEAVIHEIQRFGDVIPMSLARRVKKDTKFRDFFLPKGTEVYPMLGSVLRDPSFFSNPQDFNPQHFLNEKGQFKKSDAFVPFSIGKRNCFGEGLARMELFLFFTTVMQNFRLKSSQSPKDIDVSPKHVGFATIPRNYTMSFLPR
The following applies: microsomes. As to the method:
The inhibitory potential (IC50 values) of honokiol on CYP activities was evaluated in pooled human liver microsomes using liquid chromatography-tandem mass spectrometry (LC-MS/MS). […] Honokiol was dissolved in acetonitrile. […] After a 3 min preincubation at 37 °C, the reactions were initiated by addition of an NADP generating system and incubated for 15 min at 37 °C in a shaking water bath. The reaction was then stopped by placement of the tubes on ice and adding 100 μL of ice-cold methanol containing internal standards (^13C2, ^15N-acetaminophen for acetaminophen and N-deethylamodiaquine, and d9-1-hydroxybufuralol for 4-hydroxydiclofenac, 4-hydroxybupropion, 7-hydroxycoumarin, 4-hydroxymephenytoin, 1'-hydroxybufuralol, and 1'-hydroxymidazolam). The incubation mixtures were then centrifuged at 13,000 × g for 4 min. All incubations were performed in triplicate, and average values were used. […]
The metabolites formed from the seven CYP cocktail substrates were simultaneously determined according to our previously described LC-MS/MS method with minor modification; the concentration of 4-hydroxybupropion for CYP2B6 activity was quantified separately by LC-MS/MS. […] Quantification was performed by selected reaction monitoring (SRM) of [M+H]^+ ions and the related product ions for each metabolite. […]

A further experiment has as its target CYP3A4 (Homo sapiens, UniProt P08684). The experiment in a line: biochemical. The following applies: IC50 (μM) of honokiol, Midazolam 1'-hydroxylation. The method, then: The inhibitory potential (IC50 values) of honokiol on CYP activities was evaluated in pooled human liver microsomes using liquid chromatography-tandem mass spectrometry (LC-MS/MS). […] Honokiol was dissolved in acetonitrile. […] […] The reaction was then stopped by placement of the tubes on ice and adding 100 μL of ice-cold methanol containing internal standards (^13C2, ^15N-acetaminophen for acetaminophen and N-deethylamodiaquine, and d9-1-hydroxybufuralol for 4-hydroxydiclofenac, 4-hydroxybupropion, 7-hydroxycoumarin, 4-hydroxymephenytoin, 1'-hydroxybufuralol, and 1'-hydroxymidazolam). The incubation mixtures were then centrifuged at 13,000 × g for 4 min. All incubations were performed in triplicate, and average values were used.
The reaction was initiated by the addition of the cocktail containing seven CYP probe substrates and bupropion.
The metabolites formed from the seven CYP cocktail substrates were simultaneously determined according to our previously described LC-MS/MS method with minor modification; the concentration of 4-hydroxybupropion for CYP2B6 activity was quantified separately by LC-MS/MS. A tandem mass spectrometer (TSQ Quantum Access, Thermo Scientific, San Jose, CA, USA) coupled with a Nanospace SI-2 LC system (Tokyo, Japan) was used. […] Quantification was performed by selected reaction monitoring (SRM) of [M+H]^+ ions and the related product ions for each metabolite. […]

Sequence of CYP3A4 (P08684 2-503): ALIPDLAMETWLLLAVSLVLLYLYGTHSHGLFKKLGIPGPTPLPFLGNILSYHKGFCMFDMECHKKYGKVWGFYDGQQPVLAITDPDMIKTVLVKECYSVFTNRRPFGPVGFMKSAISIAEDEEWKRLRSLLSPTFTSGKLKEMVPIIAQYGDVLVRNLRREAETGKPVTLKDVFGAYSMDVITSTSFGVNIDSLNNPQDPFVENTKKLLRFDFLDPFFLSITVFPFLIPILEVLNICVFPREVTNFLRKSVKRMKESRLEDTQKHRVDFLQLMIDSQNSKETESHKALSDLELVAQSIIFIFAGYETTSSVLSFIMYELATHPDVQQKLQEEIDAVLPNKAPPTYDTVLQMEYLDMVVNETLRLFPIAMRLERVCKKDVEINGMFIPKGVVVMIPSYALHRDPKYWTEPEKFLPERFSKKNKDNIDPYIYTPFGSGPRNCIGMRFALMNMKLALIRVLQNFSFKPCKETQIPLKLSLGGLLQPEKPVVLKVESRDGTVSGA

Turning to `C=CCc1ccc(O)c(-c2ccc(O)c(CC=C)c2)c1` [honokiol, 2-(4-hydroxy-3-prop-2-enyl-phenyl)-4-prop-2-enyl-phenol], at CYP2A6, the “IC50 (μM) of honokiol, no preincubation” value is given as “No inhibition” and the “IC50 (μM) of honokiol, with preincubation” value is listed as “No inhibition”. Also, half-maximal inhibition on CYP3A4 (no preincubation, 2.5 μM midazolam, pooled HLM (H161)) (IC50) was put at 97.3 µM. Moreover, at CYP3A4 (with preincubation, 30 min preincubation with NADPH), the IC50 (usually the point on the concentration scale where inhibition reaches its midpoint) was determined as 45.8 µM.
